# Read-outs that look alike come from different tables or passages of the source.
# Columns and labels:
# Type in all cases: cell-based
# [1] = test system: vancomycin resistant enterococci (VRE); experiment: Broth microdilution MIC50/MIC90, VRE panel; details: Enterococcus, 10 VRE strains
# [2] = test system: Vancomycin Resistant Staphylococcus aureus (VRSA); experiment: Broth microdilution MIC/MBC, VRSA; details: for MBC / MIC: VRSA
# Bacillus anthracis = experiment: microbe, parasite or virus in culture
# B. cereus = experiment: Broth microdilution MIC/MBC, B. cereus; details: Bacillus cereus; for MBC: read-out: MBC; for MIC: read-out: MIC
# Source text: The broth microdilution technique was used, followed by subculturing on agar plates that were rhodanine—free.
# B. licheniformis = experiment: Broth microdilution MIC/MBC, B. licheniformis; details: Bacillus licheniformis; for MBC: read-out: MBC; for MIC: read-out: MIC
# Mycobacterium smegmatis = experiment: Broth microdilution MIC/MBC, Mycobacterium smegmatis; details: Mycolicibacterium smegmatis, ATCC14468, M. Smegmatis ATCC 14468
# Acinetobacter baumannii [3] = experiment: Broth microdilution MIC, Acinetobacter baumannii
# Escherichia coli O157:H7 [4] = experiment: MIC with/without sub-MIC colistin, Escherichia coli O157:H7
# How it was run: (§1)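 Sub-MIC colistin or PMBN added to broth MIC tests of rhodanines and reference antibiotics against Gram-negative strains; AcrAB efflux-deficient E. coli SM1411ΔacrAB also tested.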
# Salmonella Typhimurium [5] = experiment: MIC with/without sub-MIC colistin, Salmonella Typhimurium
# How it was run: as §1
# Klebsiella pneumoniae = experiment: MIC with/without sub-MIC colistin, Klebsiella pneumoniae
# How it was run: as §1
# Pseudomonas aeruginosa = experiment: MIC with/without sub-MIC colistin, Pseudomonas aeruginosa
# How it was run: as §1
# Acinetobacter baumannii [6] = experiment: MIC with/without PMBN, Acinetobacter baumannii
# How it was run: as §1
# Escherichia coli O157:H7 [7] = experiment: MIC with/without PMBN, Escherichia coli O157:H7
# How it was run: as §1
# Salmonella Typhimurium [8] = experiment: MIC with/without PMBN, Salmonella Typhimurium
# Method: (§2) The MIC of the rhodanines and control antibiotics, in the presence of a sub-inhibitory concentration of colistin or polymixin B nonapeptide (PMBN), against Gram-negative bacteria was evaluated as described before. The antibacterial activity of the rhodanines was further investigated against E. coli SM1411Δ acrAB, a strain that is deficient in the multidrug-resistant AcrAB efflux pump, as described before.
# Escherichia coli Δ acrAB = experiment: MIC against E. coli 1411 and AcrAB efflux pump deficient E. coli SM1411Δ acrAB
# Method: as §2
# [9] = NRS201, B. cereus NRS 201 NR-2488
# [10] = NCIB9375, B. licheniformis Gibson 46 (NCIB 9375) NR-2494
# [11] = NRS712, B. licheniformis NRS 712 NR-2499
# [12] = Salmonella enterica, ATCC 700720 / TYPHIMURIUM
smiles,measurement,setting,value
O=C(O)[C@H](Cc1ccccc1)N1C(=O)/C(=C/c2cccc(Cc3ccc(Cl)c(Cl)c3)c2)SC1=S [Rh 3],MIC90,"[1]; VRE, read-out: MIC 90",8 µM
same,MIC50,[1]; read-out: MIC 50,4 µM
same,MIC50,"[2]; 15 VRSA strains, read-out: MIC 50",8 µM
same,MIC90,"[2]; 15 VRSA strains, read-out: MIC 90",8 µM
same,MBC,"[2]; VRSA 1, read-out: MBC",32 µM
same,MIC,"[2]; VRSA 1, read-out: MIC",8 µM
same,MBC,"[2]; VRSA 2, read-out: MBC",16 µM
same,MIC,"[2]; VRSA 2, read-out: MIC",8 µM
same,MBC,"[2]; VRSA 3a, read-out: MBC",16 µM
same,MIC,"[2]; VRSA 3a, read-out: MIC",16 µM
same,MBC,"[2]; VRSA 3b, read-out: MBC",8 µM
same,MIC,"[2]; VRSA 3b, read-out: MIC",8 µM
same,MBC,"[2]; VRSA 4, read-out: MBC",32 µM
same,MIC,"[2]; VRSA 4, read-out: MIC",8 µM
same,MBC,"[2]; VRSA 5, read-out: MBC",64 µM
same,MIC,"[2]; VRSA 5, read-out: MIC",8 µM
same,MBC,"[2]; VRSA 6, read-out: MBC",16 µM
same,MIC,"[2]; VRSA 6, read-out: MIC",8 µM
same,MBC,"[2]; VRSA 7, read-out: MBC",32 µM
same,MIC,"[2]; VRSA 7, read-out: MIC",8 µM
same,MBC,"[2]; VRSA 8, read-out: MBC",16 µM
same,MIC,"[2]; VRSA 8, read-out: MIC",8 µM
same,MBC,"[2]; VRSA 9, read-out: MBC",16 µM
same,MIC,"[2]; VRSA 9, read-out: MIC",8 µM
same,MBC,"[2]; VRSA 10, read-out: MBC",64 µM
same,MIC,"[2]; VRSA 10, read-out: MIC",8 µM
same,MBC,"[2]; VRSA 11a, read-out: MBC",16 µM
same,MIC,"[2]; VRSA 11a, read-out: MIC",8 µM
same,MBC,"[2]; VRSA 11b, read-out: MBC",16 µM
same,MIC,"[2]; VRSA 11b, read-out: MIC",8 µM
same,MBC,"[2]; VRSA 12, read-out: MBC",32 µM
same,MIC,"[2]; VRSA 12, read-out: MIC",8 µM
same,MBC,"[2]; VRSA 13, read-out: MBC",32 µM
same,MIC,"[2]; VRSA 13, read-out: MIC",8 µM
same,MBC,Bacillus anthracis; Bacillus anthracis AMES35,2 µM
same,MIC,Bacillus anthracis; Bacillus anthracis AMES35,2 µM
same,MBC,Bacillus anthracis; Bacillus anthracis UM23,2 µM
same,MIC,Bacillus anthracis; Bacillus anthracis UM23,2 µM
same,MBC,Bacillus anthracis; Bacillus anthracis Weybridge,2 µM
same,MIC,Bacillus anthracis; Bacillus anthracis Weybridge,2 µM
same,MBC,B. cereus; B. cereus BAG1O-2 NR-28582,4 µM
same,MIC,B. cereus; B. cereus BAG1O-2 NR-28582,4 µM
same,MBC,B. cereus; B. cereus BAG1X1-1 NR-28575,2 µM
same,MIC,B. cereus; B. cereus BAG1X1-1 NR-28575,2 µM
same,MBC,B. cereus; B. cereus BAG1X2-1 NR-28578,4 µM
same,MIC,B. cereus; B. cereus BAG1X2-1 NR-28578,4 µM
same,MBC,B. cereus; B. cereus G9241 NR-9564,4 µM
same,MIC,B. cereus; B. cereus G9241 NR-9564,4 µM
same,MBC,B. cereus; B. cereus VD014 NR-22141,4 µM
same,MIC,B. cereus; B. cereus VD014 NR-22141,4 µM
same,MBC,B. cereus; B. cereus VD115 NR-22148,4 µM
same,MIC,B. cereus; B. cereus VD115 NR-22148,4 µM
same,MBC,B. cereus; B. cereus VD148 NR-22150,8 µM
same,MIC,B. cereus; B. cereus VD148 NR-22150,8 µM
same,MBC,B. cereus; [9],4 µM
same,MIC,B. cereus; [9],4 µM
same,MBC,B. licheniformis; [10],2 µM
same,MIC,B. licheniformis; [10],2 µM
same,MBC,B. licheniformis; [11],4 µM
same,MIC,B. licheniformis; [11],4 µM
same,MBC,Mycobacterium smegmatis; read-out: MBC,8 µM
same,MIC,Mycobacterium smegmatis; read-out: MIC,4 µM
same,MIC,Acinetobacter baumannii [3]; ATCC13345,> 128 µM
same,MIC,Acinetobacter baumannii [3]; ATCC17786,> 128 µM
same,MIC,"Escherichia coli O157:H7 [4]; Escherichia coli O157:H7 ATCC 35150, colistin (+) […], read-out: MIC",>64 µM
same,MIC,"Escherichia coli O157:H7 [4]; Escherichia coli O157:H7 ATCC 700728, colistin (+) […], read-out: MIC",>64 µM
same,MIC,"Escherichia coli O157:H7 [4]; Escherichia coli, ATCC35150",> 128 µM
same,MIC,"Escherichia coli O157:H7 [4]; Escherichia coli, ATCC700728",> 128 µM
same,MIC,"Salmonella Typhimurium [5]; Salmonella Typhimurium ATCC 700720, colistin (+) […], read-out: MIC",>64 µM
same,MIC,Salmonella Typhimurium [5]; [12],> 128 µM
same,MIC,"Klebsiella pneumoniae; Klebsiella pneumoniae ATCC BAA 2146, colistin (+) […]",>64 µM
same,MIC,"Klebsiella pneumoniae; Klebsiella pneumoniae, BAA2146",> 128 µM
same,MIC,"Pseudomonas aeruginosa; Pseudomonas aeruginosa ATCC 921, colistin (+) […], read-out: MIC",>64 µM
same,MIC,"Pseudomonas aeruginosa; Pseudomonas aeruginosa, ATCC921",> 128 µM
same,MIC,"Acinetobacter baumannii [6]; Acinetobacter baumannii ATCC BAA747, PMBN (+) 4 μg/mL, read-out: MIC",>64 µM
same,MIC,"Acinetobacter baumannii [6]; Acinetobacter baumannii ATCC BAA19606, PMBN (+) 4 μg/mL, read-out: MIC",>64 µM
same,MIC,"Acinetobacter baumannii [6]; Acinetobacter baumannii, ATCCBAA747",> 128 µM
same,MIC,"Acinetobacter baumannii [6]; Acinetobacter baumannii, ATCCBAA19606",> 128 µM
same,MIC,"Escherichia coli O157:H7 [7]; Escherichia coli O157:H7 ATCC 35150, PMBN (+) 4 μg/mL, read-out: MIC",8 µM
same,MIC,"Escherichia coli O157:H7 [7]; Escherichia coli O157:H7 ATCC 700728, PMBN (+) 4 μg/mL, read-out: MIC",>64 µM
same,MIC,"Escherichia coli O157:H7 [7]; Escherichia coli, ATCC35150",> 256 µM
same,MIC,"Escherichia coli O157:H7 [7]; Escherichia coli, ATCC700728",> 128 µM
same,MIC,"Salmonella Typhimurium [8]; Salmonella Typhimurium ATCC 700720, PMBN (+) 4 μg/mL, read-out: MIC",>128 µM
same,MIC,Salmonella Typhimurium [8]; [12],> 128 µM
same,MIC,Escherichia coli Δ acrAB; E.coli 1411,> 64 µM
same,MIC,"Escherichia coli Δ acrAB; E.coli 1411 SM (Δ acrAB, AcrAB efflux pump deficient)",> 64 µM

# Reference: paper PMC5053523, “In Vitro Antibacterial Activity of Rhodanine Derivatives against Pathogenic Clinical Isolates” (PLoS ONE, 2016)
